Patent publication US9937235B2, “Lipidated peptides as anti-obesity agents” (USTAV ORGANICKE CHEMIE A BIOCHEMIE AKADEMIE VED CR, V.V.I, priority 2012, dated 2018)
Where a SMILES comes first, the peptide text is derived from it. Where no end group is shown, it is not given here. [ ]: non-standard residue; d: D form. The star is where a group is joined. Myristoyl = CCCCCCCCCCCCCC(=O)*; Lauroyl = CCCCCCCCCCCC(=O)*; Decanoyl = CCCCCCCCCC(=O)*; Nle = CCCC[C@H](N)C(=O)O; Dap = NC[C@H](N)C(=O)O

T1: human PrRP receptor, GPR10 (Homo sapiens, UniProt P49683)
T1 construct: host or cells: CHO cells
T1 sequence (P49683 1-370): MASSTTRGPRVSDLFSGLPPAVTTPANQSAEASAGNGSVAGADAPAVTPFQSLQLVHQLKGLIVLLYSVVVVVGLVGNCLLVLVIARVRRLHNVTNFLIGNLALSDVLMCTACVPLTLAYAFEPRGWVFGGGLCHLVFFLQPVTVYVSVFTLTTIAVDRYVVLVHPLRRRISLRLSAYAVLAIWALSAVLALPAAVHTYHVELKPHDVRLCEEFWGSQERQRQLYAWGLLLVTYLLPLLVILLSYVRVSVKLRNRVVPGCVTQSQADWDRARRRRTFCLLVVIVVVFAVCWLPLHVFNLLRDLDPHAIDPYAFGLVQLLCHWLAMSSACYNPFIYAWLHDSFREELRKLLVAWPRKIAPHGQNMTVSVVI

T2: rat PrRP receptor in RC-4B/C cells (rat, UniProt Q64121 1-370)
T2 construct: whole, on cells; also called the rat receptor; GPR10
T2 sequence (looked up): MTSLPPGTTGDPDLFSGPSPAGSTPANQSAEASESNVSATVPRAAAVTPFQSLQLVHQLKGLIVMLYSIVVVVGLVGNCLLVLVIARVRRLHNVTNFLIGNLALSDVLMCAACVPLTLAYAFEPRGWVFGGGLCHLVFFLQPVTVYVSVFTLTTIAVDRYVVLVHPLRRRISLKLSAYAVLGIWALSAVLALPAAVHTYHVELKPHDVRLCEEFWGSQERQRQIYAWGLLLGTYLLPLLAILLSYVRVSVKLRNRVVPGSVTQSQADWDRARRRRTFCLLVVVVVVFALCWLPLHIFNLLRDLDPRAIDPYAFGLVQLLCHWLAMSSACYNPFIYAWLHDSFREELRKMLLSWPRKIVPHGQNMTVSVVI

B1: analog no. 12 (peptide)
peptide: [Dap](Myristoyl)RTHRHS[Nle]EIRTPDINPAWYASRGIRPVGRF-NH2
modifications: N-terminus assumed
SMILES: CCCCCCCCCCCCCC(=O)NC[C@H](N)C(=O)N[C@@H](CCCNC(=N)N)C(=O)N[C@H](C(=O)N[C@@H](Cc1c[nH]cn1)C(=O)N[C@@H](CCCNC(=N)N)C(=O)N[C@@H](Cc1c[nH]cn1)C(=O)N[C@@H](CO)C(=O)N[C@@H](CCCC)C(=O)N[C@@H](CCC(=O)O)C(=O)N[C@H](C(=O)N[C@@H](CCCNC(=N)N)C(=O)N[C@H](C(=O)N1CCC[C@H]1C(=O)N[C@@H](CC(=O)O)C(=O)N[C@H](C(=O)N[C@@H](CC(N)=O)C(=O)N1CCC[C@H]1C(=O)N[C@@H](C)C(=O)N[C@@H](Cc1c[nH]c2ccccc12)C(=O)N[C@@H](Cc1ccc(O)cc1)C(=O)N[C@@H](C)C(=O)N[C@@H](CO)C(=O)N[C@@H](CCCNC(=N)N)C(=O)NCC(=O)N[C@H](C(=O)N[C@@H](CCCNC(=N)N)C(=O)N1CCC[C@H]1C(=O)N[C@H](C(=O)NCC(=O)N[C@@H](CCCNC(=N)N)C(=O)N[C@@H](Cc1ccccc1)C(N)=O)C(C)C)[C@@H](C)CC)[C@@H](C)CC)[C@@H](C)O)[C@@H](C)CC)[C@@H](C)O
notes: analog of human PrRP31

Key:
[1] = target: T1, human PrRP receptor, GPR10; assay: Competitive binding to CHO cells with transfected human GPR10; settings: CHO cells with transfected human GPR10, human ^125I—PrRP31
Method: Competitive binding experiments were performed according to Motulsky and Neubig (Motulsky, A., et al., “Analyzing radioligand binding data,” Curr Protoc Neurosci, Chapter 7, Unit 7.5, 2002).
CHO cells with transfected human PrRP receptor, GPR10 (Perkin Elmer, USA) were grown on 24-well plates coated with polyethyleneimine. The cells were grown to the optimal density of 40-80 thousand cells per well. The following agents were used for the experiment: binding buffer (25 mmol·l^−1 Tris, pH 7.4; 118 mmol·l^−1 NaCl, 10 mmol·l^−1 MgCl2, 1 mmol·l^−1 CaCl2, 5.5 mmol·l^−1 glucose, 0.5 mg/ml BSA), unlabelled analogs of PrRP of final concentration within 10^−11 to 10^−4 mol·l^−1, and human ^125I—PrRP31 of final concentration of 5×10^−11 mol·l^−1.
(§1) Plates were incubated for 60 minutes at room temperature. After incubation, the cells were solubilized in 0.1 mol/l solution of NaOH and the radioactivity bound to the cells was counted using a γ-counter. The experiments were performed in duplicate and repeated at least three times.
For evaluation of competitive binding experiments, the program Graph Pad Prism Software (San Diego, Calif., USA) was used. A method of nonlinear regression assuming one-site binding was used.

[2] = system: fasted C57BL/6 mice; assay: Food intake in fasted mice after SC administration; assay type: in vivo, mouse; settings: fasted C57BL/6 mice, 5 mg/kg SC, 45 min
How it was run: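 Male C57BL/6 mice, food-deprived 17 h, received saline, PrRP or lipidated analogs either SC at 1-10 mg/kg or ICV into the third ventricle at 4 nmol/mouse.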

[3] = target: T2, rat PrRP receptor in RC-4B/C cells; assay: competition with 125I-rat PrRP31 on RC-4B/C cells; Ki by Cheng-Prusoff
Method: The rat pituitary cell line RC-4B/C (ATCC, Manassas, USA) was grown on 24-well plates which had their bottom coated with polyethyleneimine. The cells were grown to the optimal density of 300-450 thousand per well.
as §1

Row | Molecule | Ki [1] [nM] | Food intake in mice (5 mg/kg SC) % saline-treated group (45 min) [2] [%] | Ki [3] [nM]
1 | CCCC[C@H](NC(=O)[C@H](CO)NC(=O)[C@H](Cc1c[nH]cn1)NC(=O)[C@H](CCC(N)=O)NC(=O)[C@H](Cc1c[nH]cn1)NC(=O)[C@H](C)NC(=O)[C@H](CCCNC(=N)N)NC(=O)[C@@H](N)CO)C(=O)N[C@@H](CCC(=O)O)C(=O)N[C@H](C(=O)N[C@@H](CCCNC(=N)N)C(=O)N[C@H](C(=O)N1CCC[C@H]1C(=O)N[C@@H](CC(=O)O)C(=O)N[C@H](C(=O)N[C@@H](CC(N)=O)C(=O)N1CCC[C@H]1C(=O)N[C@@H](C)C(=O)N[C@@H](Cc1c[nH]c2ccccc12)C(=O)N[C@@H](Cc1ccc(O)cc1)C(=O)N[C@H](C(=O)NCC(=O)N[C@@H](CCCNC(=N)N)C(=O)NCC(=O)N[C@H](C(=O)N[C@@H](CCCNC(=N)N)C(=O)N1CCC[C@H]1C(=O)N[C@H](C(=O)NCC(=O)N[C@@H](CCCNC(=N)N)C(=O)N[C@@H](Cc1ccccc1)C(N)=O)C(C)C)[C@@H](C)CC)[C@@H](C)O)[C@@H](C)CC)[C@@H](C)O)[C@@H](C)O [Analog 14] (H-SRAHQHS[Nle]ETRTPDINPAWYTGRGIRPVGRF-NH2) | 1.92 ± 0.43 | 100 | –
2 | CCCCCCCCCC(=O)N[C@H](C(=O)N1CCC[C@H]1C(=O)N[C@@H](CC(=O)O)C(=O)N[C@H](C(=O)N[C@@H](CC(N)=O)C(=O)N1CCC[C@H]1C(=O)N[C@@H](C)C(=O)N[C@@H](Cc1c[nH]c2ccccc12)C(=O)N[C@@H](Cc1ccc(O)cc1)C(=O)N[C@@H](C)C(=O)N[C@@H](CO)C(=O)N[C@@H](CCCNC(=N)N)C(=O)NCC(=O)N[C@H](C(=O)N[C@@H](CCCNC(=N)N)C(=O)N1CCC[C@H]1C(=O)N[C@H](C(=O)NCC(=O)N[C@@H](CCCNC(=N)N)C(=O)N[C@@H](Cc1ccccc1)C(N)=O)C(C)C)[C@@H](C)CC)[C@@H](C)CC)[C@@H](C)O [Analog 53] (Decanoyl-TPDINPAWYASRGIRPVGRF-NH2) | 2.41 ± 0.26 | 100 | –
3 | CCCCCCCCCCCC(=O)N[C@H](C(=O)N1CCC[C@H]1C(=O)N[C@@H](CC(=O)O)C(=O)N[C@H](C(=O)N[C@@H](CC(N)=O)C(=O)N1CCC[C@H]1C(=O)N[C@@H](C)C(=O)N[C@@H](Cc1c[nH]c2ccccc12)C(=O)N[C@@H](Cc1ccc(O)cc1)C(=O)N[C@@H](C)C(=O)N[C@@H](CO)C(=O)N[C@@H](CCCNC(=N)N)C(=O)NCC(=O)N[C@H](C(=O)N[C@@H](CCCNC(=N)N)C(=O)N1CCC[C@H]1C(=O)N[C@H](C(=O)NCC(=O)N[C@@H](CCCNC(=N)N)C(=O)N[C@@H](Cc1ccccc1)C(N)=O)C(C)C)[C@@H](C)CC)[C@@H](C)CC)[C@@H](C)O [Analog 54] (Lauroyl-TPDINPAWYASRGIRPVGRF-NH2) | 2.41 ± 0.26 | 85 | –
4 | B1 | – | – | 4.13
